Reference: publication PMC9888311, “Neonatal NET-Inhibitory Factor improves survival in the cecal ligation and puncture model of polymicrobial sepsis by inhibiting neutrophil extracellular traps” (Frontiers in Immunology, 2023)
Where no end group is shown, it is not given here.

Experiments:
Assay type in all cases: in vivo, mouse (outbred Swiss Webster)
[1] = test system: neutrophil extracellular traps (NETs), peritoneal fluid; assay: Peritoneal fluid NET formation (confocal live cell imaging, MPO-DNA complex ELISA); settings: 24 hours after CLP; nNIF 1 mg/kg IV or meropenem 25 mg/kg IP at 4 and 10 hours after CLP; compared to vehicle, scrambled peptide and meropenem groups; N=5-9
Protocol: We evaluated mouse NET formation via live cell imaging with confocal microscopy as previously described ([12]). Sham mice and CLP animals from all experimental groups were euthanized by CO2 inhalation and the peritoneal fluid was collected. An aliquot of 100 μL of the peritoneal fluid was placed on glass coverslips coated with poly-L-lysine for 1 hour at 37°C in 5% CO2/95% air. NET formation was assessed using cell-permeable (SYTO Green, Molecular Probes) and cell-impermeable (SYTOX Orange, Molecular Probes) DNA fluorescent stains. Using a FV3000 1X81 confocal microscope and FluoView software (Olympus) with 20X and 60X objectives, we obtained z-series images over a range of 20 μm with a 1 μm step size for each field. We processed these images using FluoView (Olympus), Photoshop (Adobe), and ImageJ (NIH) software. An in-house ELISA was used to quantify MPO-DNA complexes in plasma and peritoneal fluid from sham and CLP mice 24 hours after the surgical procedure ([24], [27]). Briefly, after overnight coating with anti-MPO capture antibody in calcium carbonate coating buffer (2 µg/ml; 0400-0002, Bio-Rad) at 4°C, a 96-well plate was blocked with 2.5% bovine serum albumin in PBS for 2 hours at room temperature. The plate was subsequently washed, before incubating for 90 minutes at room temperature with 10% peritoneal fluid in blocking buffer. […]

[2] = test system: neutrophil extracellular traps (NETs), plasma; assay: Plasma NET formation (MPO-DNA complex ELISA); settings: 24 hours after CLP; for plasma MPO-DNA complexes compared to other CLP treatment groups: nNIF 1 mg/kg IV or meropenem 25 mg/kg IP at 4 and 10 hours after CLP, N=3-5 per group, two experiments
Protocol: An in-house ELISA was used to quantify MPO-DNA complexes in plasma and peritoneal fluid from sham and CLP mice 24 hours after the surgical procedure ([24], [27]). Briefly, after overnight coating with anti-MPO capture antibody in calcium carbonate coating buffer (2 µg/ml; 0400-0002, Bio-Rad) at 4°C, a 96-well plate was blocked with 2.5% bovine serum albumin in PBS for 2 hours at room temperature. The plate was subsequently washed, before incubating for 90 minutes at room temperature with 10% peritoneal fluid in blocking buffer. The plate was washed five times, and then incubated for 90 minutes at room temperature with anti-DNA detection antibody (1:20; Cell Death detection ELISA, 11544675001, Sigma). After five washes, the plate was developed with TMB substrate solution (Sigma).

[3] = test system: CLP model of polymicrobial sepsis; assay: Survival over 6 days after cecal ligation and puncture (CLP)
Protocol: Mice were anesthetized with 3% isoflurane in an induction chamber, and anesthesia was maintained by use of inhalation via nose cone. Sepsis was induced by cecal ligation and puncture (CLP) as previously described ([30], [31]). […] The animals received subcutaneous sterile isotonic saline (0.5 mL) for fluid resuscitation immediately after surgery. Sham-operated mice were subjected to identical procedures, except that ligation and puncture of the cecum was omitted. Survival of mice subjected to CLP or sham injury was determined daily for 6 days. Twenty-four and 48 hours after CLP, all animals were scored for clinical illness severity as previously described ([32]) by an examiner blinded to treatment arm. In this assessment, higher scores reflect increased illness severity with non-surviving mice receiving a score of 10. These mice were included in the statistical analysis. In additional experiments, mature Swiss-webster mice were treated with sham surgery or CLP procedure. […]
For our survival studies, animals were randomly assigned to one of five groups: (a) sham-operated group (Sham); (b) DMSO vehicle treatment group (CLP + DMSO (0.003%/5% Dextrose/H2O, IV); (c) nNIF treatment group ([…], 0.003%/5% Dextrose/H2O, IV); (d) scrambled peptide control treatment group (CLP + nNIF-SCR, 1 mg/kg, 0.003%/5% Dextrose/H2O, IV); and (e) antibiotic treatment group ([…]). Groups a-d received their respective treatment at 4 and 10 hours after CLP. Group e received two doses of meropenem at 4 and 10 hours after CLP and then daily injections for 6 days. In another set of survival studies, mice were treated with nNIF or nNIF-SCR (1 mg/kg, IV) 4 and 10 hours after CLP in combination therapy with a suboptimal dose of meropenem (8 mg/kg, IP) also given 4 and 10 hours after CLP and then once daily. […] Both aliquots of blood and peritoneal fluid were used for the following analyses: leukocyte cell count and differential, bacterial CFU studies, NET quantitation using MPO-DNA complex ELISA, live cell imaging, and multiplex cytokine profiling with specific ELISA confirmation.

[4] = test system: aerobic bacteria in peritoneal fluid; assay: Peritoneal fluid aerobic bacterial colony forming units; settings: 24 hours after CLP; nNIF 1 mg/kg or meropenem 25 mg/kg at 4 and 10 hours; serial dilution, LB-agar, 37°C 24 hours; N=5-8
Protocol: Peritoneal fluid cytokines were analyzed using a mouse Cytokine/Chemokine Panel I Multiplex Array (Millipore Sigma catalog# HCYTMAG60-PMX41) according to manufacturer’s instructions on a Luminex 200 instrument. Bacterial counts in whole blood and peritoneal lavage were determined 24 hours after CLP. Briefly, peritoneal fluid and blood samples were collected, serially diluted, plated on LB-agar dishes, and incubated at 37°C for 24 hours. The number of bacterial colonies was counted and expressed as CFU/mL.

neutrophil CD11b = assay: Peritoneal fluid neutrophil CD11b expression (flow cytometry); settings: 24 hours after CLP; nNIF 1 mg/kg or meropenem 25 mg/kg at 4 and 10 hours; compared to scrambled peptide control-treated CLP mice
Protocol: Twenty-four hours after CLP or sham surgery, total white blood cell and differential neutrophil counts were determined both in whole blood samples collected from orbital vein using heparinized capillaries tubes and peritoneal fluid by washing with 3 mL of PBS, respectively. Then, samples were incubated with CD45 APC-Cy7 (Biolegend), CD11b PE-Cy7 (EBioscience), Ly6G BV510 (Biolegend), and CD16/CD32 (Fc-block, EBioscience) for 30 minutes at 37 °C. Thirty minutes later, cells were washed, fixed, and ran on a Beckman Coulter Cytoflex located in the University of Utah Flow Cytometry Core.

Row | Compound | peritoneal fluid NET formation (MPO-DNA complexes, confocal microscopy) [1] | plasma MPO-DNA complexes compared to other CLP treatment groups [2] | plasma MPO-DNA complexes compared to the sham surgery group ([2]; nNIF-SCR 1 mg/kg IV or meropenem 25 mg/kg IP at 4 and 10 hours after CLP) | 6-day survival ([3]; sub-optimal meropenem 8 mg/kg IP at 4 and 10 hours after CLP then once daily) | peritoneal fluid bacterial CFUs at 24 hours [4] | neutrophil CD11b expression in peritoneal fluid (neutrophil CD11b) | 6-day survival ([3]; nNIF 0.1 mg/kg IV, 2 doses at 4 and 10 hours after CLP, N=10, vehicle (DMSO) control 0%) | 6-day survival ([3]; nNIF 0.5 mg/kg IV, 2 doses at 4 and 10 hours after CLP, N=10, vehicle (DMSO) control 0%)
1 | C[C@@H](O)[C@H]1C(=O)N2C(C(=O)O)=C(S[C@@H]3CN[C@H](C(=O)N(C)C)C3)[C@H](C)[C@H]12 [meropenem, reference compound] | equivalent between the vehicle and meropenem arms | equivalent between the vehicle and meropenem arms | significantly increased MPO-DNA complexes | 40% | statistically significant decrease | no decrease |  | 
2 | KFNKPFVFLMIEQNTKSPLFMGKVVNPTQ-OH [nNIF, neonatal NET-Inhibitory Factor] | reduced NET formation qualitatively and quantitatively | significant reduction in MPO-DNA complexes |  |  | higher CFUs | significantly decreased neutrophil CD11b expression | 30% | 70%
